# Measurements taken from US20200108043A1, “COMPOUNDS AND COMPOSITIONS FOR EXTENDING LIFESPAN OF A SUBJECT” (YALE UNIVERSITY, priority 2017, published 2020).
# “Also recorded” adds a separate entry of the source. Counter-ions that a name gives are not always drawn.
# Tested on: S. cerevisiae
# Assay: not given
# Type: cell-based
# Conditions: 10 μM compound
# Description: To obtain the single-cell level data for the age and generation-durations of replicatively aging mother cells, data reported in Liu, P., et al., Cell Rep. 634-644 (2015) was re-analyzed. The data was collected in the same media condition (CSM 2% glucose) as reported elsewhere herein. Cells were grown for ˜24 hours in CSM 2% glucose prior to loading to the microfluidic device. Once cells were loaded, media was swapped to provide CSM 2% glucose control media (untreated), media containing DMSO as a vehicle control (American Bio AB00435), media containing 10 μM terreic acid (Sigma SML0480), media containing 10 μM mycophenolic acid (Sigma M5255), or media containing another compound at the indicated concentration. An automated microscope was used to track […], and replicative lifespan was later determined by counting the number of daughters produced before death. In the case of compound validation, only newborn cells were included in the lifespan experiment. To compare the replicative lifespan of labeled and unlabeled cells, only cells that were present within the traps at the start of the experiment were included. For these experiments, cells were loaded to the microfluidic device at an increased rate of 100 μL/min to increase the number of trapped mother cells. Green fluorescent images were also taken at the start of the experiment to confirm that the cells were visibly labeled.
# Differences in lifespan characteristics were assessed through Log-Rank test using MATLAB with a cut-off value of P=0.05. The script for Log-Rank test was downloaded from MATLAB. Differences in proteasome activity were assessed using the unpaired, two-tailed, parametric t-test function of the GraphPad Prism software.
# The Longevity Placement Test (LPT) was designed as a mutually exclusive, collectively exhaustive test to determine the relationship of a longevity intervention to a known genetic regulator of lifespan. For a given intervention that extends lifespan, any of three possible relationships may exist relative to a known genetic regulator of lifespan. (1) The intervention may act to extend lifespan independently from the known regulator. (2) The […] may act downstream from the known regulator, converging on a single component of the known regulator's lifespan pathway. (3) The intervention may act upstream from or upon the known regulator, ultimately modulating lifespan through the genetic regulator.
# In Step 1 of the LPT, the longevity intervention is applied to a strain in which a genetic regulator of lifespan is deleted. In the event that lifespan extension from the longevity intervention is observed in this background, only possibilities (1) and (2) above remain valid (FIG. 7B). If no lifespan extension is observed, then possibilities (2) and (3) remain valid. Possibility (2) cannot be ruled out in this step, since non-saturating action by the genetic regulator could leave room for lifespan extension by the longevity intervention, while saturating action would preclude it.
# In Step 2 of the LPT, an epistatic agent, which prevents lifespan extension from the longevity agent, is applied to a strain in which some upstream member of the genetic regulator's lifespan pathway has been modified to extend lifespan. This step differentiates possibility (2) from the remaining possibility after Step 1. In the event that lifespan extension from the genetic regulator's pathway is suppressed by the epistatic agent, this determines that possibility (2) is correct. In the event that no epistasis is observed, the remaining possibility, (1) or (3), is correct (FIG. 7C).
row,Structure (SMILES),toxicity in Replicator RLS experiment
1,"O=[N+]([O-])c1ccc(O)c2ncccc12 [nitroxoline, 8-hydroxy-5-nitroquinoline]",toxic and caused most cells to arrest immediately

# Same assay, conditions: 10 μM, supplied to young yeast cells throughout lifespan, vs untreated control
row,Structure (SMILES),lifespan of yeast cells (Replicator validation)
1,N=C(N)N/N=C/c1c(Cl)cccc1Cl [guanabenz acetate],extend the lifespan
2,[H]/N=C(\N/C(=N/[H])Nc1ccc(Cl)cc1)NC(C)C [proguanil hydrochloride],extend the lifespan

# Same assay, conditions: 10 μg/mL folinic acid with 10 μM proguanil, Replicator device
row,Structure (SMILES),suppression of the longevity effect of proguanil
1,Nc1nc(=O)c2c([nH]1)NCC(CNc1ccc(C(=O)N[C@@H](CCC(=O)O)C(=O)O)cc1)N2C=O (mixture of isomers) [folinic acid],able to suppress the longevity effect of proguanil

# Tested on: Saccharomyces cerevisiae
# Assay: High-Life (High throughput replicative Lifespan measurement) flow cytometry assay in MEP yeast
# Type: cell-based
# Conditions: 10 μM, 24 hours in culture, 3-4 replicate wells, repeat of screen hits
# Description: Cells were labeled with NHS-fluorescein as described above, then diluted to 20 cells/μL in media. 80 μL/well was aliquoted to 384-well plates, which were covered with a breathable membrane and placed on a shaker platform in a humidified incubator. After 3 hours, the plates were removed from the incubator and each well was treated with 20 μL pre-warmed, 30° C. 5 μM β-estradiol in media. In the case of ibuprofen or compound-treated wells, the compound was diluted in this volume at a 5× concentration to achieve a final concentration of 10 μM, or 100 μM for ibuprofen. The plates were then returned to the incubator. At indicated times, one plate was removed from the incubator and placed on an autosampler cooled to 8° C. attached to a Stratedigm flow cytometer. The cytometer was set to automatically add and mix 20 μL of aqueous solution containing 60 μg/mL CF405M-WGA (Biotium 29028) and propidium iodide (Sigma P4864) prior to acquiring 80 μL of sample for each well.
# In order to test the lifespan of model organisms on both a large-scale and with quick turn-around, a massively multiplexed method was developed to measure replicative lifespan in the short-lived model organisms Saccharomyces cerevisiae. The protocol uses green-fluorescent labeling to identify progenitor cells, red-fluorescent labeling to differentiate non-viable cells, and blue-fluorescent labeling of bud scars to determine replicative age (FIG. 1). Each parameter is measured using a flow cytometer.
# To achieve high throughput, the measurement system was automated, and the assay was performed in 384-well plates. The assay was performed using an autosampler-equipped flow cytometer, in a volume of 100 μL. Growth of even a single cell and its progeny in such a small volume will result in nutrient starvation before the natural replicative lifespan is exhausted; therefore to circumvent this issue, High-Life experiments were performed in the background of the Mother Enrichment Program (MEP) (Lindstrom and Gottschling, Genetics. 2009 October; 183(2):413-22). MEP strains express a CRE recombinase fused to an estrogen-binding domain for only a short time after birth. In the presence of β-estradiol, the recombinase translocates to the nucleus where it can excise two essential genes that have been modified to contain the exogenous LoxP sequence. Addition of β-estradiol to the media thus renders newborn daughters inviable without affecting existing mother cells, preventing exponential growth of the cell population and nutrient depletion (FIG. 2A).
# The High-Life method was then tested to determine if it was suitable to screening for compounds that extend replicative lifespan. […] The effect of these compounds on High-Life readings was assayed after 24 hours in culture at 10 μM concentration. As a positive control, ibuprofen was used.
row,Structure (SMILES),average High-Life readings (progenitor fraction viable vs CF405M intensity) relative to controls
1,N.N.[Cl][Pt][Cl] [cisplatin],at least slightly above controls
2,O=C(O)c1cc(=O)c2c(OCC(O)COc3cccc4oc(C(=O)O)cc(=O)c34)cccc2o1 [cromolyn sodium],at least slightly above controls
3,CN1CCc2cccc3c2[C@H]1Cc1ccc(O)c(O)c1-3 [e hydrochloride],at least slightly above controls
4,N=C(N)N/N=C/c1c(Cl)cccc1Cl [guanabenz acetate],at least slightly above controls
5,Cc1ccc(Cl)c(Nc2ccccc2C(=O)O)c1Cl [meclofenamate sodium],at least slightly above controls
6,"O=[N+]([O-])c1ccc(O)c2ncccc12 [nitroxoline, 8-hydroxy-5-nitroquinoline]",at least slightly above controls
7,[H]/N=C(\N/C(=N/[H])Nc1ccc(Cl)cc1)NC(C)C [proguanil hydrochloride],at least slightly above controls
8,Cn1c([N+](=O)[O-])cnc1COC(N)=O [ronidazole],at least slightly above controls
9,CC(=O)OCC(=O)NCCCOc1cccc(CN2CCCCC2)c1 [roxatidine acetate hydrochloride],at least slightly above controls

# Same assay, conditions: 100 μM ibuprofen vs untreated, multiple time points 0-48 h
row,Structure (SMILES),replicative lifespan (High-Life)
1,CC(C)Cc1ccc(C(C)C(=O)O)cc1 (stereo not drawn) [ibuprofen],increase in replicative lifespan was observed

# Same assay, conditions: testing conditions identical to Example 3 (10 μM, 24 hours)
row,Structure (SMILES),lifespan extending properties (High-Life)
1,"COc1c(C)c2c(c(O)c1CC1CC1(C)CCC(=O)O)C(=O)OC2 (stereo not drawn) [3-(2-((4-Hydroxy-6-methoxy-7-methyl-3-oxo-1,3-dihydroisobenzofuran-5-yl)methyl)-1-methylcyclopropyl)propanoic acid]",measurable lifespan extension in initial tests
2,"COc1c(C)c2c(c(O)c1C/C=C(\C)CCC(=O)NCc1ccncc1)C(=O)OC2 [(E)-6-(4-hydroxy-6-methoxy-7-methyl-3-oxo-1,3-dihydroisobenzofuran-5-yl)-4-methyl-N-(pyridin-4-ylmethyl)hex-4-enamide]",at least some lifespan extending properties; also recorded: measurable lifespan extension in initial tests
3,Cn1cnc([N+](=O)[O-])c1Sc1ncnc2nc[nH]c12 [Azathioprine],at least some lifespan extending properties
4,CN(C)CCCN1c2ccccc2Sc2ccc(Cl)cc21 [Chlorpromazine],at least some lifespan extending properties
5,Cc1oncc1C(=O)Nc1ccc(C(F)(F)F)cc1 [Leflunomide],at least some lifespan extending properties
6,CN(Cc1cnc2nc(N)nc(N)c2n1)c1ccc(C(=O)N[C@@H](CCC(=O)O)C(=O)O)cc1 [Methotrexate],at least some lifespan extending properties
7,NC(=O)c1ncn([C@@H]2O[C@H](CO)[C@@H](O)[C@H]2O)c1O [Mizoribine],at least some lifespan extending properties
8,Nc1nc2[nH]cc(CCc3ccc(C(=O)N[C@@H](CCC(=O)O)C(=O)O)cc3)c2c(=O)[nH]1 [Pemetrexed],at least some lifespan extending properties
9,N=C(N)c1ccc(OCCCCCOc2ccc(C(=N)N)cc2)cc1 [Pentamidine],at least some lifespan extending properties
10,CCN(CC)CCCC(C)Nc1c2ccc(Cl)cc2nc2ccc(OC)cc12 (stereo not drawn) [Quinacrine],at least some lifespan extending properties
11,Cc1cc(NS(=O)(=O)c2ccc(N)cc2)no1 [Sulfamethoxazole],at least some lifespan extending properties
12,COc1cc(Cc2cnc(N)nc2N)cc(OC)c1OC [Trimethoprim],at least some lifespan extending properties

# Same assay, conditions: testing conditions identical to Example 3 (10 μM, 24 hours); listed as 3-(2-((4-Hydroxy-6-methoxy-7-methyl-2-oxo-1,3-dihydroisobenzofuran-5-yl)methyl)-
row,Structure (SMILES),lifespan extending properties (High-Life)
1,"COc1c(C)c2c(c(O)c1CC1CC1(C)CCC(=O)O)C(=O)OC2 (stereo not drawn) [3-(2-((4-Hydroxy-6-methoxy-7-methyl-3-oxo-1,3-dihydroisobenzofuran-5-yl)methyl)-1-methylcyclopropyl)propanoic acid]",at least some lifespan extending properties
